For 81 compounds, RP-LC retention time results are on record in the METLIN SMRT retention time set (Domingo-Almenara et al. 2019).

This series is described as follows: gradient 5% acetonitrile 3 min, to 50% in 2 min, to 85% in 15 min, held 3 min, 100 µL/min. The following applies: column: Zorbax Extend-C18 2.1 x 50 mm; eluents: water / acetonitrile, 0.1% formic acid. In short, it runs like this: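 Each retention time is based on an adduct peak selected computationally and verified by manual inspection. Measurements used HPLC–quadrupole time-of-flight mass spectrometry in positive and negative ionization mode on mixtures of ~100 pure standards. Chromatography ran on a Zorbax Extend-C18 column (2.1 × 50 mm, 1.8 μm) at 100 μL/min with water and acetonitrile, each containing 0.1% formic acid, and dead and dwell volumes of 40 μL and 900 μL.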
Regarding `COC(=O)c1nnn(-c2cc(C)cc(C)c2)c1C(=O)OC`, the RP-LC retention time worked out at 949 s.
For `CCn1c(N2CCN(C(=O)Nc3cccc(C(C)=O)c3)CC2)nc2ccccc21` the value was 576 s; for `c1cc(N2CCCCC2)ncc1-c1noc(CN2CCC3(CC2)OCCO3)n1`, 637 s.
In the case of `CCCC(=O)Nc1nnc(SCc2ccc(Br)cc2)s1` it was 934 s; in that of `COc1ccc(CNS(=O)(=O)c2cc3n(c2)CCN(C(C)C)C3=O)cc1`, 712 s.
For `COc1cccc(-c2cc3c(=O)n(Cc4nc(-c5ccc(F)c(Br)c5)no4)ccn3n2)c1` the value was 1090 s; for `COCC(=O)N(C1CCOCC1)C1CCN(S(=O)(=O)c2ccccc2C)CC1`, 737 s; for `Cc1ccc(-c2nc3ncccn3c2Nc2c(C)cccc2C)cc1`, 820 s.
The compound `O=C(Nc1ccc(C2(C(=O)NCc3ccc(F)cc3Cl)CCC2)cc1)C1CC1` yielded an RP-LC retention time of 898 s.
As for `COCC(=O)N1CCCc2ccc(NC(=O)c3cc(C)oc3C)cc21`, the RP-LC retention time worked out at 725 s.
`COc1ccc(Br)cc1S(=O)(=O)NCCc1ccccc1` had an RP-LC retention time of 962 s.
For `Cc1ccc(-n2c(N3CCCC(C(=O)NCC(C)c4ccccc4)C3)nc3ccsc3c2=O)cc1` (stereo unspecified) the value was 961 s; for `CC(C)Oc1ccc(-c2noc(CN3N=NC4C(=O)N(c5ccc(F)c(F)c5)C(=O)C43)n2)cc1` (stereo unspecified), 1110 s; for `O=c1c2ccccc2c(-c2nc(-c3cccnc3)no2)cn1-c1cccc(F)c1`, 709 s.
For `CCN1C(=O)c2cccnc2Sc2cc(NC(=O)CCOC)ccc21` the value was 645 s; for `CC(C)OCCCNC(=O)CN1C(=O)C2CCCCN2c2ccc(C(=O)N3CCCC3)cc21` (stereo unspecified), 746 s; for `Cc1ccccc1N1CCN(C(=O)CCC2CCN(c3cc(NC4CC4)ncn3)CC2)CC1`, 768 s.
In turn, `COC(=O)c1ncn2c1C(=O)N(Cc1ccc(F)cc1Cl)C(C)(C(=O)NCc1ccccc1)C2` (stereo unspecified) returned an RP-LC retention time of 771 s.
For `Cc1ccc(NS(=O)(=O)c2cc3n(c2)CCCNC3=O)cc1` the value was 651 s.
In the case of `Cc1cc(N2CCN(C)CC2)nc2ccc(NC(=S)N3CCC(C)CC3)cc12` it was 604 s; in that of `Cc1ccc(CNc2nnc(N3CCOCC3)c3ccccc23)cc1`, 678 s; in that of `COc1ccc(C2(C(=O)N3CCc4nn(C)c(=O)n4CC3)CC2)cc1`, 657 s.
For `CC(C)NC(=O)c1ccc(OCC2CCCN2C(=O)c2ccco2)cc1` (stereo unspecified) the value was 757 s.
Compound `CC1CCN(c2nn(CC(=O)Nc3ccc(F)cc3)c(=O)c3ccccc23)CC1` returned an RP-LC retention time of 1120 s.
As for `Cc1ccc(S(=O)(=O)Nc2ccc(C)n(CC(=O)O)c2=O)cc1`, the RP-LC retention time came to 694 s.
Consider `Cc1nn(C)cc1CN1CCC[C@H]1c1nc(-c2ccccc2)n[nH]1`, for which the RP-LC retention time was 580 s.
For `CN1c2ccc(Cl)cc2C(=O)NC12CCN(C(=O)NCCc1ccccc1)CC2` the value was 819 s; for `CC(CCc1ccccc1)NC(=O)C1CCN(c2cc(Oc3ccccc3)ncn2)CC1` (stereo unspecified), 998 s; for `O=C(OCC12CC3CC(CC(C3)C1)C2)c1ccc(NCc2cc(O)ccc2O)cc1`, 1080 s.
For `CN(C)C(=O)c1cn(C2CN(C(=O)CCc3c[nH]c4ccccc34)C2)nn1` the value was 652 s.
`Cc1cccc(NC(=O)Nc2nccn(-c3ccc(Br)cc3)c2=O)c1` gave an RP-LC retention time of 1050 s.
For `O=C(NCc1ccccc1F)C1CCN(C(=O)c2ncn3c2COC(c2ccc(F)cc2)C3)CC1` (stereo unspecified) the value was 736 s; for `O=C(Cc1ccccc1Cl)NCCCn1cccc1`, 773 s; for `CCOC(=O)c1cc2c(cn1)[nH]c1ccccc12`, 691 s.
In the case of `CCOC(=O)Cn1c(=O)c2c(nc3n2CC(C)CN3c2ccc(Br)cc2)n(C)c1=O` (stereo unspecified) it was 1010 s; in that of `O=C(NCC(=O)N1CCc2ccccc21)Nc1cccc(Br)c1`, 894 s.
In the case of `CCn1nc(C)c(CCNC(=O)C2CCCN(c3nn4c(=O)c5c(nc4s3)CCCC5)C2)c1C` (stereo unspecified) it was 634 s.
Compound `Cc1ccc(S(=O)(=O)N2CCCC2)cc1-c1nnc(-c2ccc(Cl)cc2)o1` came in with an RP-LC retention time of 1130 s.
`COc1cccc(CNC(=O)N2c3ccccc3CC2c2nc(C3CC3)no2)c1` (stereo unspecified) gave an RP-LC retention time of 775 s.
In the case of `CCC(C)NC(=O)C1CCN(c2cnc(N3CCOCC3)nc2)CC1` (stereo unspecified) it was 638 s.
For `O=C(Cn1cc(-c2nc(-c3ccc(Cl)cc3)no2)ccc1=O)NC1CCCC1` the value was 928 s; for `CCCOc1ccc(N2CCN(C(=O)c3cc(Cl)ccc3OC)CC2)nn1`, 670 s.
Compound `COCCN1CC2CN(C(=O)Nc3ccc4c(c3)OCCO4)CC(C1)O2` gave an RP-LC retention time of 580 s.
In the case of `Cc1cccc(NC(=O)Nc2c(-c3ccc(F)cc3)nc3ccccn23)c1C` it was 697 s; in that of `COCCN1C(=O)CCc2cc(NC(=O)C(C)(C)C)ccc21`, 707 s; in that of `CN1C(=O)c2cc(S(=O)(=O)Nc3ccc(Cl)cc3)ccc2Oc2cccnc21`, 950 s.
In the case of `CCOC(=O)c1c(S(=O)(=O)N2CCC(C(=O)NCc3ccc(OC)cc3)CC2)c(C)n(C)c1C` it was 793 s.
In the case of `O=[N+]([O-])c1cnc(Sc2ccncn2)s1` it was 843 s; in that of `COc1cc2c(cc1CNC(=O)C1CC1)OCCCO2`, 709 s.
The compound `CCNc1nc(C)cc(N2CCN(C(=O)Nc3ccc(C)cc3C)CC2)n1` came in with an RP-LC retention time of 656 s.
In the case of `Cc1ccc(NC(=O)Nc2ccc3nc(N4CCN(C)CC4)cc(C)c3c2)cc1Cl` it was 640 s; in that of `Cc1c(F)cccc1NC(=O)N1CCC(n2cnnc2C2CC2)C1` (stereo unspecified), 655 s.
For `O=C(NC1CCCCC1N1C(=O)CSC1=O)c1ccc[nH]c1=O` (stereo unspecified) the value was 606 s; for `Cc1nn(C2CCS(=O)(=O)C2)c(C)c1N1CCN(C(=O)C(C)Oc2ccccc2)CC1` (stereo unspecified), 731 s.
In the case of `O=C(c1ccc(S(=O)(=O)NCc2cccnc2)o1)N1CCN(c2ccccc2F)CC1` it was 624 s; in that of `COc1ccc(C(=O)NCC(=O)Nc2nc3ccccc3[nH]2)c(C)c1`, 630 s; in that of `Cn1cc(-c2ccc(Cl)cc2)cc1C(=O)NCc1ccco1`, 1020 s.
As for `COCc1nc(-c2ccc(OC3CN(Cc4ccncc4)C3)cc2)no1`, the RP-LC retention time turned out to be 589 s.
On to `Cc1ccc(-n2ccc(=O)c(-c3nc(-c4ccc(F)c(Br)c4)no3)n2)cc1C`, for which the RP-LC retention time amounted to 1120 s.
`O=C(NC1CCN(c2cc(-c3cccs3)[nH]n2)C1)c1cccc(OC(F)(F)F)c1` (stereo unspecified) registered an RP-LC retention time of 828 s.
In turn, `Cc1c(C(=O)NCC2CCCO2)cnn1-c1cc(-c2nc(C3CC3)no2)ccn1` (stereo unspecified) registered an RP-LC retention time of 837 s.
`CCCNC(=O)Cc1cn(CC)c2ncccc12` had an RP-LC retention time of 611 s.
For `COC(=O)c1ncn2c1C(=O)N(C1CC1)C(C)(C(=O)NCc1ccc(C)cc1)C2` (stereo unspecified) the value was 643 s; for `COc1ccc(NC(=O)C2CCc3sc(C(=O)N4CCCC4)cc3C2)cc1F` (stereo unspecified), 779 s.
`CS(=O)(=O)N1CCCC(C(=O)NC2CCCCC2)CCNC(=O)CC1` (stereo unspecified): the RP-LC retention time was found to be 633 s.
`CC1Cc2cc(-c3cc(CNC(=O)c4ccccc4C(F)(F)F)no3)ccc2O1` (stereo unspecified) came in with an RP-LC retention time of 875 s.
For `CN1C(=O)c2cc(C(=O)N3CCCC3)nn2CC1(C)C(=O)NCc1ccc(F)cc1` (stereo unspecified) the value was 626 s; for `Cn1c(=O)n(C)c2cc(CNc3ccc(C(=O)O)cc3)ccc21`, 687 s; for `Cc1ccc(-c2nnc(Cc3nc(-c4ccc5c(c4)OCO5)no3)o2)cc1C`, 1070 s.
For `Cc1cccc(OCc2nc(CCN(C)C(=O)NCc3ccccc3)no2)c1` the value was 832 s; for `COc1ccc(CNC(=O)C2CCN(C(=O)N3CCOc4ccc(Cl)cc43)CC2)cc1`, 846 s.
In the case of `CCOc1ccc(NS(=O)(=O)c2cc(C(=O)N3CCN(c4ccccc4F)CC3)n[nH]2)cc1` it was 922 s; in that of `Cc1ccc(CNC(=O)c2cccc(C3CCCN(C(=O)NC(C)C)C3)c2)o1` (stereo unspecified), 833 s; in that of `CC1CCN(C(=O)c2nc(CCS(=O)(=O)c3ccc(Cl)cc3)no2)CC1`, 974 s.
On to `CC(C)(C)CC(=O)N1CCN(c2nc(CN3CCCCCC3)cs2)CC1`, for which the RP-LC retention time is 668 s.
In the case of `Cc1cc(Cl)ccc1OCC(=O)Nc1nc(-c2ccc(F)cc2)cs1` it was 1190 s; in that of `O=C(C1CC(=O)N(c2n[nH]c3cccc(F)c23)C1)N1CCC(Cc2ccccc2)CC1` (stereo unspecified), 882 s.
In the case of `Cc1cnn(CC(=O)N2CCC3(CCC3O)CC2)c1` (stereo unspecified), the RP-LC retention time was 607 s.
For `COc1ccc(NC(=O)CCC2CCCN(c3cc(NC4CC4)ncn3)C2)cc1OC` (stereo unspecified) the value was 645 s; for `Cc1cc(C)n(-c2ccnc(NCCc3cccnc3)n2)n1`, 584 s.
For `CCN(CC)c1ncc2c(n1)CCC(C(=O)NCc1ccc(F)cc1Cl)C2` (stereo unspecified) the value was 731 s.
